Results reported in PubChem BioAssay (NCI).
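Exposure lasted 48 hours, with cells grown in 96-well plates and compounds tested at five concentrations. GI50 = concentration required for 50% inhibition of growth. TGI: total growth inhibition.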

Key:
Assay in all cases: DTP human tumour cell line panel, 48 h
786-0 renal = system: 786-0 renal
A498 renal = system: A498 renal
A549 NSCLC = system: A549 NSCLC
ACHN renal = system: ACHN renal
BT-549 breast = system: BT-549 breast
CAKI-1 renal = system: CAKI-1 renal
CCRF-CEM leukemia = system: CCRF-CEM leukemia
COLO 205 colon = system: COLO 205 colon
DU-145 prostate = system: DU-145 prostate
EKVX NSCLC = system: EKVX NSCLC
HCC-2998 colon = system: HCC-2998 colon
HCT-116 colon = system: HCT-116 colon
HCT-15 colon = system: HCT-15 colon
HL-60(TB) leukemia = system: HL-60(TB) leukemia
HOP-62 NSCLC = system: HOP-62 NSCLC
HOP-92 NSCLC = system: HOP-92 NSCLC
HS 578T breast = system: HS 578T breast
HT29 colon = system: HT29 colon
K-562 leukemia = system: K-562 leukemia
KM12 colon = system: KM12 colon
LOX IMVI melanoma = system: LOX IMVI melanoma
M14 melanoma = system: M14 melanoma
MALME-3M melanoma = system: MALME-3M melanoma
MCF7 breast = system: MCF7 breast
MDA-MB-231 breast = system: MDA-MB-231 breast
MDA-MB-435 = system: MDA-MB-435
MOLT-4 leukemia = system: MOLT-4 leukemia
NCI-H226 lung = system: NCI-H226 lung
NCI-H23 lung = system: NCI-H23 lung
NCI-H460 lung = system: NCI-H460 lung
NCI-H522 lung = system: NCI-H522 lung
NCI/ADR-RES ovarian = system: NCI/ADR-RES ovarian
OVCAR-3 ovarian = system: OVCAR-3 ovarian
OVCAR-4 ovarian = system: OVCAR-4 ovarian
OVCAR-5 ovarian = system: OVCAR-5 ovarian
OVCAR-8 ovarian = system: OVCAR-8 ovarian
PC-3 prostate = system: PC-3 prostate
RPMI-8226 leukemia = system: RPMI-8226 leukemia
RXF 393 renal = system: RXF 393 renal
SF-268 CNS = system: SF-268 CNS
SF-295 CNS = system: SF-295 CNS
SF-539 CNS = system: SF-539 CNS
SK-MEL-2 melanoma = system: SK-MEL-2 melanoma
SK-MEL-28 melanoma = system: SK-MEL-28 melanoma
SK-MEL-5 melanoma = system: SK-MEL-5 melanoma
SK-OV-3 ovarian = system: SK-OV-3 ovarian
SN12C renal = system: SN12C renal
SNB-19 CNS = system: SNB-19 CNS
SNB-75 CNS = system: SNB-75 CNS
SR leukemia = system: SR leukemia
SW-620 colon = system: SW-620 colon
T-47D breast = system: T-47D breast
TK-10 renal = system: TK-10 renal
U251 CNS = system: U251 CNS
UACC-257 melanoma = system: UACC-257 melanoma
UACC-62 melanoma = system: UACC-62 melanoma
UO-31 renal = system: UO-31 renal

With `Cc1ccc2nc(-c3ccc(N(C)C)c(Br)c3)cn2c1` the GI50 (786-0 renal) was > 100 µM, the TGI (786-0 renal) was > 100 µM and the GI50 (A498 renal) was > 100 µM. The TGI (A498 renal) was > 100 µM, the GI50 (A549 NSCLC) was > 100 µM and the TGI (A549 NSCLC) was > 100 µM. The GI50 (ACHN renal) was > 100 µM, the TGI (ACHN renal) was > 100 µM and the GI50 (BT-549 breast) was 63.3 µM. For the same molecule, the TGI (BT-549 breast) was > 100 µM, the GI50 (CAKI-1 renal) was > 100 µM and the TGI (CAKI-1 renal) was > 100 µM. For the same molecule, the GI50 (CCRF-CEM leukemia) was 6.52 µM, the TGI (CCRF-CEM leukemia) was > 100 µM and the GI50 (COLO 205 colon) was > 100 µM. For the same molecule, the TGI (COLO 205 colon) was > 100 µM, the GI50 (DU-145 prostate) was > 100 µM and the TGI (DU-145 prostate) was > 100 µM. For the same molecule, the GI50 (EKVX NSCLC) was > 100 µM, the TGI (EKVX NSCLC) was > 100 µM and the GI50 (HCC-2998 colon) was > 100 µM. For the same molecule, the TGI (HCC-2998 colon) was > 100 µM, the GI50 (HCT-116 colon) was 7.13 µM and the TGI (HCT-116 colon) was > 100 µM. For the same molecule, the GI50 (HCT-15 colon) was 4.19 µM, the TGI (HCT-15 colon) was > 100 µM and the GI50 (HL-60(TB) leukemia) was 1.61 µM. The TGI (HL-60(TB) leukemia) was > 100 µM, the GI50 (HOP-62 NSCLC) was > 100 µM and the TGI (HOP-62 NSCLC) was > 100 µM. The GI50 (HOP-92 NSCLC) was 44.4 µM, the TGI (HOP-92 NSCLC) was > 100 µM and the GI50 (HS 578T breast) was 25.3 µM. The TGI (HS 578T breast) was > 100 µM, the GI50 (HT29 colon) was 7.02 µM and the TGI (HT29 colon) was > 100 µM. For the same molecule, the GI50 (K-562 leukemia) was 2.93 µM, the TGI (K-562 leukemia) was > 100 µM and the GI50 (KM12 colon) was 54.1 µM. The TGI (KM12 colon) was > 100 µM, the GI50 (LOX IMVI melanoma) was 35.2 µM and the TGI (LOX IMVI melanoma) was > 100 µM. For the same molecule, the GI50 (M14 melanoma) was > 100 µM, the TGI (M14 melanoma) was > 100 µM and the GI50 (MALME-3M melanoma) was > 100 µM. The TGI (MALME-3M melanoma) was > 100 µM, the GI50 (MCF7 breast) was 27.8 µM and the TGI (MCF7 breast) was > 100 µM. For the same molecule, the GI50 (MDA-MB-231 breast) was > 100 µM, the TGI (MDA-MB-231 breast) was > 100 µM and the GI50 (MDA-MB-435) was 22.6 µM. For the same molecule, the TGI (MDA-MB-435) was > 100 µM, the GI50 (MOLT-4 leukemia) was 3.99 µM and the TGI (MOLT-4 leukemia) was > 100 µM. The GI50 (NCI-H226 lung) was > 100 µM, the TGI (NCI-H226 lung) was > 100 µM and the GI50 (NCI-H23 lung) was > 100 µM. For the same molecule, the TGI (NCI-H23 lung) was > 100 µM, the GI50 (NCI-H460 lung) was 4.18 µM and the TGI (NCI-H460 lung) was > 100 µM. For the same molecule, the GI50 (NCI-H522 lung) was > 100 µM, the TGI (NCI-H522 lung) was > 100 µM and the GI50 (NCI/ADR-RES ovarian) was > 100 µM. For the same molecule, the TGI (NCI/ADR-RES ovarian) was > 100 µM, the GI50 (OVCAR-3 ovarian) was > 100 µM and the TGI (OVCAR-3 ovarian) was > 100 µM. For the same molecule, the GI50 (OVCAR-4 ovarian) was > 100 µM, the TGI (OVCAR-4 ovarian) was > 100 µM and the GI50 (OVCAR-5 ovarian) was > 100 µM. For the same molecule, the TGI (OVCAR-5 ovarian) was > 100 µM, the GI50 (OVCAR-8 ovarian) was 17.4 µM and the TGI (OVCAR-8 ovarian) was > 100 µM. For the same molecule, the GI50 (PC-3 prostate) was 5.69 µM, the TGI (PC-3 prostate) was > 100 µM and the GI50 (RPMI-8226 leukemia) was 3.93 µM. For the same molecule, the TGI (RPMI-8226 leukemia) was > 100 µM, the GI50 (RXF 393 renal) was > 100 µM and the TGI (RXF 393 renal) was > 100 µM. The GI50 (SF-268 CNS) was 8.09 µM, the TGI (SF-268 CNS) was > 100 µM and the GI50 (SF-295 CNS) was > 100 µM. For the same molecule, the TGI (SF-295 CNS) was > 100 µM, the GI50 (SF-539 CNS) was 8.14 µM and the TGI (SF-539 CNS) was > 100 µM. For the same molecule, the GI50 (SK-MEL-2 melanoma) was > 100 µM, the TGI (SK-MEL-2 melanoma) was > 100 µM and the GI50 (SK-MEL-28 melanoma) was 10.5 µM. For the same molecule, the TGI (SK-MEL-28 melanoma) was > 100 µM, the GI50 (SK-MEL-5 melanoma) was 5.78 µM and the TGI (SK-MEL-5 melanoma) was > 100 µM. The GI50 (SK-OV-3 ovarian) was > 100 µM, the TGI (SK-OV-3 ovarian) was > 100 µM and the GI50 (SN12C renal) was > 100 µM. The TGI (SN12C renal) was > 100 µM, the GI50 (SNB-19 CNS) was 64.4 µM and the TGI (SNB-19 CNS) was > 100 µM. For the same molecule, the GI50 (SNB-75 CNS) was 31.3 µM, the TGI (SNB-75 CNS) was > 100 µM and the GI50 (SR leukemia) was 1.46 µM. The TGI (SR leukemia) was > 100 µM, the GI50 (SW-620 colon) was 42.3 µM and the TGI (SW-620 colon) was > 100 µM. For the same molecule, the GI50 (T-47D breast) was > 100 µM, the TGI (T-47D breast) was > 100 µM and the GI50 (TK-10 renal) was > 100 µM. For the same molecule, the TGI (TK-10 renal) was > 100 µM, the GI50 (U251 CNS) was 7.19 µM and the TGI (U251 CNS) was > 100 µM. The GI50 (UACC-257 melanoma) was > 100 µM, the TGI (UACC-257 melanoma) was > 100 µM and the GI50 (UACC-62 melanoma) was > 100 µM. The TGI (UACC-62 melanoma) was > 100 µM, the GI50 (UO-31 renal) was > 100 µM and the TGI (UO-31 renal) was > 100 µM.
